In article PMC6597546, “Identification of a potent benzoxaborole drug candidate for treating cryptosporidiosis” (Nature Communications, 2019):
In brackets after ≈: the same amount, converted by molar mass. Several values for one entry are separate records, joined by “and”; a condition that tells them apart may be missing. Equal values may be shown once. Read-outs that look alike come from different tables or passages of the source.

Experiments:
C. hominis TU502 isolate = experiment: C. hominis growth inhibition in HCT-8 cells; assay type: cell-based, Cryptosporidium hominis; conditions: single replicates, unit inferred, read-out: In vitro efficacy (Fig 2b, EC50)
Protocol: Follow-up assays were performed at the University of Vermont (UVM) and Calibr at Scripps Research by infection of the colonic adenocarcinoma cell line HCT-8 (ATCC CCL-244) and staining with the Vicia villosa lectin and DAPI[17],[32]. The FBS concentrations and parasites used for these assays were as indicated; parasite isolates and sources included C. parvum Iowa isolate oocysts purchased from Bunch Grass Farm (Deary, ID), C. parvum Iowa isolate oocysts purchased from the Sterling Laboratory (University of Arizona, Tucson, AZ), wild type C. parvum oocysts provided by Dr. Jenni Zambriski (Virginia Tech, Blacksburg, VA), and the C. hominis TU502 isolate purchased from Dr. Saul Tzipori (Tufts University Cummings School of Veterinary Medicine, North Grafton, MA).

[1] = tested on: C. parvum (Bunch Grass Farms Iowa isolate); experiment: NOD scid gamma (NSG) mouse model of established C. parvum infection; assay type: in vivo, NOD scid gamma mice; conditions: for reduction of parasite shedding: after 4 days of treatment
Protocol: NOD scid gamma mice (NOD.Cg-Prkdcscid Il2rgtm1Wjl/SzJ)[55] (NSG) were used to model chronic Cryptosporidium infection. All NSG mouse studies were performed in compliance with animal care guidelines and with approval by the University of Vermont Institutional Animal Care and Use Committee. NSG mice with normal flora were purchased from The Jackson Laboratory (Bar Harbor, ME) and were housed for at least a week for acclimatization. […] Fecal parasite shedding was measured using a quantitative PCR (qPCR) assay, and the primers named above as Cp18s forward and Cp18s reverse.

[2] = tested on: C. parvum (Bunch Grass Farms Iowa isolate); experiment: Time-kill curve assay in HCT-8 cells; assay type: cell-based, Cryptosporidium parvum
Protocol: The invasion assay, DNA replication assay, asexual to sexual stage conversion, and time-kill curve assays were performed using fluorescence microscopy to enumerate parasites and host cell nuclei. Staining protocols are individually described for each assay. Unless noted otherwise, the details of image acquisition were as follows. An inverted Nikon Eclipse Ti2000 microscope with an automated stage and Perfect Focus was used with NIS-Elements Advanced Research software (Nikon, USA, version 4.30.01) to image the wells. The microscope was programmed to focus on the center of each well and then take a 3 × 3 composite image per well using a 20 × (0.45 NA) objective. Images were exported as .tiff files and parasites and host nuclei counted using a custom macro on ImageJ (National Institutes of Health, version 1.52a). Data were analyzed using Microsoft Excel and GraphPad Prism (version 6.01). […] C. parvum Iowa isolate oocysts (Bunch Grass Farms, Deary, ID) were treated to induce excystation and added to >90% confluent HCT-8 cells in 384-well plates. […] The monolayers were then washed, fixed, and stained with Vicia villosa lectin and DAPI at the indicated time points, and imaged as for the C. parvum growth assay. Separate 384-well plates were used for each time point. Parasite numbers were normalized to host cell nucleus numbers and expressed as the percentage of host cells infected. Drug-induced parasite decay was isolated from the reduction in parasites over time that occurs spontaneously in the HCT-8 culture system by expressing the number of parasites as the percentage of the number of parasites present at each time point under control (DMSO-treated) conditions.

[3] = 7-day repeated oral dose toxicity study in rats
Protocol: A repeated oral dose toxicity and separate toxicokinetics (TK) study were performed in male rats by WuXi AppTec Company (Suzhou, China). […] Animals were individually housed in solid bottom plastic cages with bedding in compliance with the US Animal Welfare Act. All rat studies were performed using ∼8-week-old Sprague-Dawley male rats (Rattus novegicus)/Crl: CD[SD] […] Cage side clinical observations of condition and behavior (i.e., gait, stool, activity level, atonia, coat soiling and grooming, skin turgor, posture, priapism, piloerection) were performed twice daily during the dosing phase, and weights and food consumption were measured daily. At termination, all study animals were evaluated for erythrocyte count, absolute reticulocyte count, alkaline phosphatase, and triglycerides by fasting the animals overnight and obtaining blood from the abdominal aorta at necropsy as a terminal procedure under deep anesthesia (pentobarbital). A complete necropsy and histopathologic studies (hematoxylin and eosin staining) of large intestine, small intestine, stomach, and any gross lesions were performed on all animals on day 7 of dosing. […] Serum was collected from vehicle-control animals at 1 h and 4 h after dosing on days 1 and 7. […] Following completion of blood collection, TK animals were euthanized by CO2 inhalation and exsanguination without necropsy.

[4] = Cytotoxicity murine L929 (3d); assay type: cell-based; conditions: mouse, L929 cells, 25 µM highest concentration tested
[5] = Liver microsome Clint (mouse); assay type: in vitro ADME; conditions: liver microsomes
CYP2C19 = CYP2C19 (Homo sapiens, UniProt P33261); experiment: CYP450 inhibition 2C19; assay type: in vitro ADME
Chain of CYP2C19 (P33261 whole entry): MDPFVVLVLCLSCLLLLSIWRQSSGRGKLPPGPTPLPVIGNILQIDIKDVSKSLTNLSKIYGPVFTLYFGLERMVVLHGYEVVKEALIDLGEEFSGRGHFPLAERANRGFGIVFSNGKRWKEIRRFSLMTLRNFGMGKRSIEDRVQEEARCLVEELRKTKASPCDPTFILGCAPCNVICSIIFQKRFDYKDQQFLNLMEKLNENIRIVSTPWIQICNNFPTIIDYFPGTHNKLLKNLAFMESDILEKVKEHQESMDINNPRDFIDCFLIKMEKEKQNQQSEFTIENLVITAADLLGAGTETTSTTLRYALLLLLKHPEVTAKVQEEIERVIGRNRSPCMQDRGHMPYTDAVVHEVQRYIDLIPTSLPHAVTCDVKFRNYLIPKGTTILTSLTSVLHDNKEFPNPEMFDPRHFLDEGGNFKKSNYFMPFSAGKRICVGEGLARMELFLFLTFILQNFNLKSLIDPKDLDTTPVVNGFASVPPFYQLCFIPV

Single-dose oral calf PK = assay type: in vivo, Holstein bull calves; conditions: calves, oral 5 mg per kg
Protocol: Single-dose oral and intravenous murine PK studies were performed by WuXi Biologics (Wuxi, China) in female CD-1 mice in compliance with animal care guidelines. […] Single-dose oral calf PK studies were performed at the University of Vermont in compliance with animal care guidelines and with approval from the University of Vermont Institutional Animal Care and Use Committee. […] Doses were squirted into the calves’ mouths during interruptions in bottle feeding. Fecal samples were collected at the indicated times by manual anal stimulation. […] Fecal AN7973 was measured by extracting AN7973 from homogenized feces with acetonitrile. For this, feces were added to 4 volumes of acetonitrile (4 mL per g), mixed by vortexing for 5 min at room temperature, and then centrifuged. […] The fecal extraction method was validated with a standard curve of compound added to control feces. […] Non-compartmental analysis of the mean concentration-time profiles was performed using Phoenix version 6.4 (Pharsight Corporation, Mountain View, CA, USA). Concentrations below the limit of quantitation were assigned values of zero for generation of mean concentrations. Predictions of multidose exposures were generated by non-parametric superposition of the single-dose PK data using Phoenix version 6.4 (Supplementary Fig. 5).

[6] = Plasma Protein Binding (bovine); assay type: in vitro ADME; conditions: read-out: Plasma Protein Binding (PPB) (converted)
Solubility PBS pH 7.4 = assay type: physicochemical; conditions: aqueous buffer
[7] = male, Holstein, bovine, plasma, 5 mg/kg

## CC1(C)OB(O)c2cc(NC(=O)c3ccc(-n4cccn4)cc3Cl)ccc21 [AN7973]
C. hominis TU502 isolate; C. hominis (Tu502, 2%FBS)
  EC50: 570 nM and 580 nM
C. hominis TU502 isolate; Cryptosporidium hominis, HCT-8, C. hominis (Tu502, 2%FBS)
  EC50: 750 nM
[1]; 10 mg per kg once daily oral gavage
  reduction of parasite shedding: > 90%
[1]; 10 mg/kg, D7 (before treatment)
  parasite fecal shedding (qPCR), individual mice: 58.681 oocysts/mg feces and 43.169 oocysts/mg feces and 158.993 oocysts/mg feces and 120.558 oocysts/mg feces
[1]; 10 mg/kg, D11
  parasite fecal shedding (qPCR), individual mice: 7.142 oocysts/mg feces and 1.830 oocysts/mg feces and 16.882 oocysts/mg feces and 7.589 oocysts/mg feces
[1]; 25 mg per kg once daily oral gavage
  reduction of parasite shedding: > 99%
[1]; 25 mg/kg, D7 (before treatment)
  parasite fecal shedding (qPCR), individual mice: 379.464 oocysts/mg feces and 632.650 oocysts/mg feces and 267.595 oocysts/mg feces and 299.397 oocysts/mg feces
[1]; 25 mg/kg, D11, ND = not detected, lower limit of detection 0.1
  parasite fecal shedding (qPCR), individual mice: 0.825 oocysts/mg feces
[1]; treated NSG mice gained weight normally
  adverse effects in NSG mice: no adverse effects were observed
[2]; Cryptosporidium parvum, HCT-8, read-out: concentration at which maximum rate of parasite elimination was achieved (∼3 × EC90)
  concentration giving maximum rate of parasite elimination: ~630 nM
[2]; compound added ~24 h after infection of HCT-8
  time-kill curve result: appeared to act rapidly and drove progressive elimination of C. parvum
[2]; compound at 3 x EC90, 0 h exposure
  % Parasite / host nuclei: 25.13% and 23.57% and 25.93% and 26.94%
[2]; compound at 3 x EC90, 6 h exposure
  % Parasite / host nuclei: 24.78% and 34.35% and 30.89%
[2]; compound at 3 x EC90, 24 h exposure
  % Parasite / host nuclei: 15.27% and 14.74% and 17.96% and 15.11%
[2]; compound at 3 x EC90, 48 h exposure
  % Parasite / host nuclei: 20.76% and 12.39% and 18.77% and 13.91%
[2]; compound at 3 x EC90, 72 h exposure
  % Parasite / host nuclei: 10.40% and 6.55% and 11.33% and 7.26%
[2]; compound at 6 x EC90, 0 h exposure
  % Parasite / host nuclei: 26.94% and 25.13% and 23.57% and 25.93%
[2]; compound at 6 x EC90, 6 h exposure
  % Parasite / host nuclei: 28.91% and 27.91% and 32.17% and 31.13%
[2]; compound at 6 x EC90, 24 h exposure
  % Parasite / host nuclei: 21.47% and 14.00% and 13.65% and 12.46%
[2]; compound at 6 x EC90, 48 h exposure
  % Parasite / host nuclei: 10.56% and 11.11% and 14.16% and 9.59%
[2]; compound at 6 x EC90, 72 h exposure
  % Parasite / host nuclei: 5.25% and 6.00% and 13.91% and 10.57%
[2]; compound at 9 x EC90, 0 h exposure
  % Parasite / host nuclei: 26.94% and 25.13% and 23.57% and 25.93%
[2]; compound at 9 x EC90, 24 h exposure
  % Parasite / host nuclei: 14.18% and 12.40% and 14.28% and 11.31%
[2]; compound at 9 x EC90, 48 h exposure
  % Parasite / host nuclei: 12.96% and 14.27% and 16.75% and 18.20%
[2]; compound at 12 x EC90, 0 h exposure
  % Parasite / host nuclei: 26.94% and 25.13% and 23.57% and 25.93%
[2]; compound at 12 x EC90, 24 h exposure
  % Parasite / host nuclei: 11.36% and 18.45% and 14.90% and 9.34%
[2]; compound at 12 x EC90, 48 h exposure
  % Parasite / host nuclei: 10.50% and 12.64% and 5.47% and 10.46%
[2]; compound at 12 x EC90, 72 h exposure
  % Parasite / host nuclei: 8.81% and 7.07% and 9.43% and 15.51%
[2]; compound at EC50, 0 h exposure
  % Parasite / host nuclei: 26.94% and 25.13% and 23.57% and 25.93%
[2]; compound at EC50, 6 h exposure
  % Parasite / host nuclei: 20.18%
[2]; compound at EC50, 24 h exposure
  % Parasite / host nuclei: 55.77% and 58.71% and 35.00% and 58.88%
[2]; compound at EC50, 48 h exposure
  % Parasite / host nuclei: 63.82% and 58.60% and 55.54% and 55.88%
[2]; compound at EC50, 72 h exposure
  % Parasite / host nuclei: 29.51% and 58.62% and 41.28% and 34.71%
[2]; compound at EC90, 0 h exposure
  % Parasite / host nuclei: 26.94% and 25.13% and 23.57% and 25.93%
[2]; compound at EC90, 24 h exposure
  % Parasite / host nuclei: 31.22% and 39.05% and 28.47% and 33.72%
[2]; compound at EC90, 48 h exposure
  % Parasite / host nuclei: 43.81% and 37.66% and 41.76% and 32.99%
[2]; compound at EC90, 72 h exposure
  % Parasite / host nuclei: 28.05% and 29.96% and 37.03% and 23.24%
[2]; in vitro
  time required for 99.9% parasite reduction: ~92 h
[2]; one-phase exponential decay, 12 × EC90, referenced to DMSO control
  in vitro parasite elimination half-life: ~9.2 h
[3]; 80 mg per kg per day oral gavage, seven days, male rats
  tolerability in rats: well tolerated
[3]; 80 mg·kg-1·d-1, mean ± SD
  Alkaline phosphatase on day 8: 188 ± 17 U·L-1
  Average weight on day 1: 260.24 g
  Average weight on day 7: 305.36 ± 8.8 g
  Reticulocyte count on day 8: 563.2 ± 66.6 ×10^9 per L
  Total food consumption (days 1-7): 156.1 ± 10.1 g
  Triglycerides on day 8: 0.39 ± 0.16 mmol/L
[3]; 80 mg·kg-1·d-1, n=5
  Mortality (unscheduled deaths): 0
[4]
  IC50 at 3 d: > 25000 nM
[5]
  microsomal CLint: < 1 µL/min/mg
CYP2C19
  inhibition at 10 µM: 27%
Single-dose oral calf PK
  t1/2: 31.1 h
Single-dose oral calf PK; [7]
  AUC(0-inf): 190 µg·h/mL
  Cmax: 3570 ng/mL
Single-dose oral calf PK; male, Holstein, bovine, plasma, po, 5 mg/kg
  half-life: 31 h
[6]
  fraction unbound: 0.04
Solubility PBS pH 7.4
  solubility: 126 µM (≈ 48.1 µg/mL)
